# Experimental data from publication PMC6290073, “Tropinone synthesis via an atypical polyketide synthase and P450-mediated cyclization” (Nature Communications, 2018).
# Like-named read-outs stand apart in the source and are kept apart here.
# Key:
# AbCYP82M3 = biological target: T1, AbCYP82M3 (Atropa belladonna, UniProt A0A3G4RHY7); conditions: 1 mM NADPH, pH 7.0, ionic strength 0.05, 20% glycerol, 30 °C
# T1 construct: gene CYP82M3
# AbPYKS [1] = biological target: T2, AbPYKS (Atropa belladonna, UniProt A0A3G4RHW3); conditions: substrate inhibition constant, 25 mM potassium phosphate pH 8.0, 30 °C
# T2 construct: gene OGAS
# AbPYKS [2] = biological target: T2, AbPYKS; conditions: apparent; 0.1 mM malonyl-CoA, 25 mM potassium phosphate pH 8.0, 30 °C
# [3] = system: CC(C)(COP(=O)(O)OP(=O)(O)OC[C@H]1O[C@@H](n2cnc3c(N)ncnc32)[C@H](O)[C@@H]1OP(=O)(O)O)[C@@H](O)C(=O)NCCC(=O)NCCSC(=O)CC(=O)O; assay: purified protein; conditions: apparent, 0.05 mM N-methyl-Δ^1-pyrrolinium, 25 mM potassium phosphate pH 8.0, 30 °C
# T2 sequence (A0A3G4RHW3 1-392 limits assumed): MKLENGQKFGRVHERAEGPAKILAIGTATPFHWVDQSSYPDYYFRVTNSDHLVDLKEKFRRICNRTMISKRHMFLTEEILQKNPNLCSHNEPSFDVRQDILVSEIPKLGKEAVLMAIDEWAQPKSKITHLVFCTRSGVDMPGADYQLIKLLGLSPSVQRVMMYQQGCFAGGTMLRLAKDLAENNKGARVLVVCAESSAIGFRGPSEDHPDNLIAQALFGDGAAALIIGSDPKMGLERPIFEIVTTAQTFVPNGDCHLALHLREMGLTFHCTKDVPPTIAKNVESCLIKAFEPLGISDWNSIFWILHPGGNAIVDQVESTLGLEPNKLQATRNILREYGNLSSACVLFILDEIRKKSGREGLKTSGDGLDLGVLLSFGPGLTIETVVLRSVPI
# T1 sequence (A0A3G4RHY7 1-519): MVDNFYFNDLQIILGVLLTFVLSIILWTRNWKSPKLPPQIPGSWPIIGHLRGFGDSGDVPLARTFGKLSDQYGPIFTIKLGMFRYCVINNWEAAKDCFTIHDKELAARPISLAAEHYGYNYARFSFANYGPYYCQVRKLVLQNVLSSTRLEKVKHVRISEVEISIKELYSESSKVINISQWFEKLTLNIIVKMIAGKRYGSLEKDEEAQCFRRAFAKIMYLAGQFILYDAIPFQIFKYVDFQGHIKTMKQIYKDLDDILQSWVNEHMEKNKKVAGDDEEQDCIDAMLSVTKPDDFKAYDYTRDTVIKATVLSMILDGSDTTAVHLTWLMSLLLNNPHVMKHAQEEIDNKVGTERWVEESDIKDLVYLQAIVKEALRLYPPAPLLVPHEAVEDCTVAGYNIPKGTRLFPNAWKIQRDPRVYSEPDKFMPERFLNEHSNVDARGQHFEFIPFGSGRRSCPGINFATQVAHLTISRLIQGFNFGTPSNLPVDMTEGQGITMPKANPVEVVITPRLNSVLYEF
compound,measurement,setting,value
"CN1CCCC1CC(=O)CC(=O)O (racemic) [compound 5, 4-(1-methyl-2-pyrrolidinyl)-3-oxobutanoic acid]",Km,AbCYP82M3,631 ± 26 µM
CC(C)(COP(=O)(O)OP(=O)(O)OC[C@H]1O[C@@H](n2cnc3c(N)ncnc32)[C@H](O)[C@@H]1OP(=O)(O)O)[C@@H](O)C(=O)NCCC(=O)NCCSC(=O)CC(=O)O [Malonyl-CoA],K i /,AbPYKS [1]; 0.05 mM N-methyl-Δ^1-pyrrolinium,280 ± 0.9 µM
"C[N+]1=CCCC1 [compound 4, N-methyl-Δ^1-pyrrolinium]",K i /,AbPYKS [1]; 0.1 mM malonyl-CoA,103 ± 16 µM
same,Km,AbPYKS [2],10 ± 0.6 µM
AbPYKS (Atropa belladonna),Km,[3],12 ± 1 µM
same,Vmax,[3],13.8 µmol/min/mg
same,kcat,[3],10 ± 0.1 s⁻¹
same,kcat/Km,[3],848000 ± 90000 M⁻¹ s⁻¹
